Measurements from patent US20260265265A1, “NOVEL BENZIMIDAZOLONE DERIVATIVE COMPOUND AS AUTOTAXIN INHIBITOR” (LG CHEM, LTD., priority 2023, published 2026).

Target: T1, Recombinant Human ENPP-2/Autotaxin (Homo sapiens, UniProt Q13822)
T1 construct: purchased R&D systems 5255-EN
Experiment: LysoPLD activity measurement (autotaxin enzyme inhibition, choline release, TOOS reagent)
Format: biochemical
Conditions: LysoPLD inhibitory activity; substrate 14:0 LysoPC; absorbance at 555 nm
How it was run: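 Enzyme and compound were preincubated for 30 min before adding 14:0 LysoPC substrate, diluted to 300 μM, for 90 minutes at 37° C. The choline product was quantified colorimetrically with TOOS reagent. Wells without compound held 1% DMSO.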

SMILES | IC50
C[C@@H]1COCCN1C(=O)Cc1ccc(-n2c(=O)n(C3(c4cccc(C(=O)O)c4)CC3)c3ccc(Cl)cc32)cc1 [Example 178, (R)-3-(1-(5-chloro-3-(4-(2-(3-methylmorpholino)-2-oxoethyl)phenyl)-2-oxo-2,3-dihydro-1H-benzo[d]imidazol-1-yl)cyclopropyl)benzoic acid] | < 10 nM
O=C(O)c1cccc(C2(n3c(=O)n(-c4ccc(C56CC7CC(CC(C7)C5)C6)cc4)c4cc(Cl)ccc43)CC2)c1 [Example 179, 3-(1-(3-(4-((3r,5r,7r)-adamantan-1-yl)phenyl)-5-chloro-2-oxo-2,3-dihydro-1H-benzo[d]imidazol-1-yl)cyclopropyl)benzoic acid] | 100 to 1000 nM
CS(=O)(=O)c1ccc(-n2c(=O)n(C3(c4cccc(C(=O)O)c4)CC3)c3ccc(Cl)cc32)cc1 [Example 180, 3-(1-(5-chloro-3-(4-(methylsulfonyl)phenyl)-2-oxo-2,3-dihydro-1H-benzo[d]imidazol-1-yl)cyclopropyl)benzoic acid] | < 10 nM
O=C(O)c1cccc(C2(n3c(=O)n(-c4ccc(N5CC6CC5CO6)cc4)c4cc(Cl)ccc43)CC2)c1 (stereo not drawn) [Example 181, 3-(1-(3-(4-(2-oxa-5-azabicyclo[2.2.1]heptan-5-yl)phenyl)-5-chloro-2-oxo-2,3-dihydro-1H-benzo[d]imidazol-1-yl)cyclopropyl)benzoic acid] | < 10 nM
O=C(O)c1cccc(C2(n3c(=O)n(-c4ccc(N5CC6CCC(C5)O6)cc4)c4cc(Cl)ccc43)CC2)c1 [Example 182, 3-(1-(3-(4-(8-oxa-3-azabicyclo[3.2.1]octan-3-yl)phenyl)-5-chloro-2-oxo-2,3-dihydro-1H-benzo[d]imidazol-1-yl)cyclopropyl)benzoic acid] | < 10 nM
O=C(O)c1cccc(C2(n3c(=O)n(-c4ccc(N5CCCOCC5)cc4)c4cc(Cl)ccc43)CC2)c1 [Example 183, 3-(1-(3-(4-(1,4-oxazepan-4-yl)phenyl)-5-chloro-2-oxo-2,3-dihydro-1H-benzo[d]imidazol-1-yl)cyclopropyl)benzoic acid] | < 10 nM
O=C(O)c1cccc(C2(n3c(=O)n(-c4ccc(N5CC6(CCC6)C5)cc4)c4cc(Cl)ccc43)CC2)c1 [Example 184, 3-(1-(3-(4-(2-azaspiro[3.3]heptan-2-yl)phenyl)-5-chloro-2-oxo-2,3-dihydro-1H-benzo[d]imidazol-1-yl)cyclopropyl)benzoic acid] | 10 to 100 nM
O=C(O)c1cccc(C2(n3c(=O)n(-c4ccc(N5CC(F)(F)C5)cc4)c4cc(Cl)ccc43)CC2)c1 [Example 185, 3-(1-(5-chloro-3-(4-(3,3-difluoroazetidin-1-yl)phenyl)-2-oxo-2,3-dihydro-1H-benzo[d]imidazol-1-yl)cyclopropyl)benzoic acid] | < 10 nM
CC(=O)N1CCC2(CC1)CN(c1ccc(-n3c(=O)n(C4(c5cccc(C(=O)O)c5)CC4)c4ccc(Cl)cc43)cc1)C2 [Example 186, 3-(1-(3-(4-(7-acetyl-2,7-diazaspiro[3.5]nonan-2-yl)phenyl)-5-chloro-2-oxo-2,3-dihydro-1H-benzo[d]imidazol-1-yl)cyclopropyl)benzoic acid] | < 10 nM
O=C(O)c1cc(F)cc(C2(n3c(=O)n(-c4ccc(N5CCOCC5)cc4)c4cc(Cl)ccc43)CC2)c1 [Example 187, 3-(1-(5-chloro-3-(4-morpholinophenyl)-2-oxo-2,3-dihydro-1H-benzo[d]imidazol-1-yl)cyclopropyl)-5-fluorobenzoic acid] | < 10 nM
CN(C)c1ccc(-n2c(=O)n(C3(c4cc(F)cc(C(=O)O)c4)CC3)c3ccc(Cl)cc32)cc1 [Example 188, 3-(1-(5-chloro-3-(4-(dimethylamino)phenyl)-2-oxo-2,3-dihydro-1H-benzo[d]imidazol-1-yl)cyclopropyl)-5-fluorobenzoic acid] | < 10 nM
CN(C)C(=O)Cc1ccc(-n2c(=O)n(C3(c4cc(F)cc(C(=O)O)c4)CC3)c3ccc(Cl)cc32)cc1 [Example 189, 3-(1-(5-chloro-3-(4-(2-(dimethylamino)-2-oxoethyl)phenyl)-2-oxo-2,3-dihydro-1H-benzo[d]imidazol-1-yl)cyclopropyl)-5-fluorobenzoic acid] | < 10 nM
O=C(O)c1cc(F)cc(C2(n3c(=O)n(-c4ccc(C5CCOCC5)cc4)c4cc(Cl)ccc43)CC2)c1 [Example 190, 3-(1-(5-chloro-2-oxo-3-(4-(tetrahydro-2H-pyran-4-yl)phenyl)-2,3-dihydro-1H-benzo[d]imidazol-1-yl)cyclopropyl)-5-fluorobenzoic] | 10 to 100 nM
O=C(O)c1cc(F)cc(C2(n3c(=O)n(-c4ccc(N5CC6(COC6)C5)cc4)c4cc(Cl)ccc43)CC2)c1 [Example 191, 3-(1-(3-(4-(2-oxa-6-azaspiro[3.3]heptan-6-yl)phenyl)-5-chloro-2-oxo-2,3-dihydro-1H-benzo[d]imidazol-1-yl)cyclopropyl)-5-fluorobenzoic acid] | < 10 nM
O=C(O)c1cc(F)cc(C2(n3c(=O)n(-c4ccc(N5CC6CCC(C5)O6)cc4)c4cc(Cl)ccc43)CC2)c1 [Example 192, 3-(1-(3-(4-(8-oxa-3-azabicyclo[3.2.1]octan-3-yl)phenyl)-5-chloro-2-oxo-2,3-dihydro-1H-benzo[d]imidazol-1-yl)cyclopropyl)-5-fluorobenzoic acid] | < 10 nM
O=C(O)c1cc(F)cc(C2(n3c(=O)n(-c4ccc(N5CC6(CCOCC6)C5)cc4)c4cc(Cl)ccc43)CC2)c1 [Example 193, 3-(1-(3-(4-(7-oxa-2-azaspiro[3.5]nonan-2-yl)phenyl)-5-chloro-2-oxo-2,3-dihydro-1H-benzo[d]imidazol-1-yl)cyclopropyl)-5-fluorobenzoic acid] | < 10 nM
O=C(O)c1cc(F)cc(C2(n3c(=O)n(-c4ccc(N5CC(F)(F)C5)cc4)c4cc(Cl)ccc43)CC2)c1 [Example 194, 3-(1-(5-chloro-3-(4-(3,3-difluoroazetidin-1-yl)phenyl)-2-oxo-2,3-dihydro-1H-benzo[d]imidazol-1-yl)cyclopropyl)-5-fluorobenzoic acid] | < 10 nM
CC(C)(C)OC(=O)N1CCC2(CC1)CN(c1ccc(-n3c(=O)n(C4(c5cc(F)cc(C(=O)O)c5)CC4)c4ccc(Cl)cc43)cc1)C2 [Example 195, 3-(1-(3-(4-(7-(tert-butoxycarbonyl)-2,7-diazaspiro[3.5]nonan-2-yl)phenyl)-5-chloro-2-oxo-2,3-dihydro-1H-benzo[d]imidazol-1-yl)cyclopropyl)-5-fluorobenzoic acid] | 10 to 100 nM
O=C(O)c1cc(F)cc(C2(n3c(=O)n(-c4ccc(N5CC6(CCC6)C5)cc4)c4cc(Cl)ccc43)CC2)c1 [Example 196, 3-(1-(3-(4-(2-azaspiro[3.3]heptan-2-yl)phenyl)-5-chloro-2-oxo-2,3-dihydro-1H-benzo[d]imidazol-1-yl)cyclopropyl)-5-fluorobenzoic acid] | 10 to 100 nM
O=C(O)c1cc(F)cc(C2(n3c(=O)n(-c4ccc(N5CCC(F)(F)CC5)cc4)c4cc(Cl)ccc43)CC2)c1 [Example 197, 3-(1-(5-chloro-3-(4-(4,4-difluoropiperidin-1-yl)phenyl)-2-oxo-2,3-dihydro-1H-benzo[d]imidazol-1-yl)cyclopropyl)-5-fluorobenzoic acid] | < 10 nM
O=C(O)c1cc(Cn2c(=O)n(-c3ccc(N4CCOCC4)cc3)c3c(F)c(Cl)ccc32)on1 [Example 198, 5-((5-chloro-4-fluoro-3-(4-morpholinophenyl)-2-oxo-2,3-dihydro-1H-benzo[d]imidazol-1-yl)methyl)isoxazole-3-carboxylic acid] | 100 to 1000 nM
